Assays:
[1] = test system: Vascular smooth muscle cells derived from rat arota; assay: Imaging of nitric oxide produced by vascular smooth muscle cells; type: cell-based
Description: The normal lines represent fluorescence intensity of each cell and bold lines represent the averages thereof.
Vascular smooth muscle cells derived from rat arota were cultured in a glass bottom dish, and stimulated with LPS (12.5 μg/ml), […] (150 U/ml), IL-1β (25 U/ml) and TNF-α (30 ng/ml) to induce a nitric oxide synthase. The culture was continued for about 12 hours, and then the culture medium was changed to Krebs-Ringer-phosphate buffer (KRP) in which DAR-1EE was dissolved (Example 2, 10 μM) to allow uptake of […] by the cells. The cells were cultured at 37° C. for 1 hour, and washed, and the culture medium was changed to KRP in which L-Arg or L-NMMA was dissolved. Changes in intracellular fluorescence with time was observed under a fluorescence microscope (Ex. 530-560 nm, Em. 550-610 nm, magnification: ×20).

[2] = Changes in sensitivity (absorbance, fluorescence intensity) at varying pHs; type: physicochemical; settings: about 1 μM in 78 mM phosphate buffer, neutral to weakly acidic, approximately pH 4; Ex. 565 nm-Em. 580 nm
Description: DAR-1T was dissolved in purified water to prepare a solution of a concentration of 100 μM. The solution was added to phosphate buffer (78 mM) adjusted to each pH at a final concentration of about 1 μM, and absorbance and fluorescence intensity were measured. The measurement wavelengths of fluorescence were set to Ex. 565 nm-Em. 580 nm. In the figure, (a) represent the results of the absorptiometric measurement and (b) represents the results of fluorescence intensity measurement.

[3] = Fluorescence maximum wavelengths; type: physicochemical
Excerpt: Maximum wavelengths: Ex. 565 nm-Em. 580 nm

[4] = buffer, pH 7.4; cited from earlier work

SMILES: CCOC(=O)c1c(-c2c3ccc(=[N+](CC)CC)cc-3oc3cc(N(CC)CC)ccc23)ccc(N)c1N [DAR-1EE, [9-(3,4-diamino-2-ethoxycarbonylphenyl)-6-diethylamino-3H-xanthen-3-ylidene]diethyliminium]
- intracellular fluorescence intensity with time, nitric oxide producing cells ([1]; 10 μM DAR-1EE loaded 1 hour at 37° C., stimulated cells (LPS, INF, IL-1β, TNF-α), 1 mM L-Arg): Fluorescence intensity increased with time
- intracellular fluorescence intensity with time, cells producing no nitric oxide (non-stimulated) ([1]; 10 μM DAR-1EE loaded, non-stimulated cells, 1 mM L-Arg): substantially no change in fluorescence intensity
- intracellular fluorescence intensity with time, cells added with the NOS inhibitor ([1]; 10 μM DAR-1EE loaded, stimulated cells, 1 mM L-Arg+10 mM NMMA): substantially no change in fluorescence intensity
- cellular uptake and intracellular hydrolysis ([1]; 10 μM in KRP, 37° C., 1 hour): uptaken into the cells and hydrolyzed

SMILES: CCN(CC)c1ccc2c(-c3ccc4nn[nH]c4c3C(=O)O)c3ccc(=[N+](CC)CC)cc-3oc2c1 [DAR-1T, [9-(7-carboxybenzotriazol-6-yl)-6-diethylamino-3H-xanthen-3-ylidene]diethyliminium]
- fluorescence intensity as a function of pH [2]: no changes in fluorescence intensity
- Maximum wavelength Em. ([3]; emission): 580 nm
- Maximum wavelength Ex. ([3]; excitation): 565 nm

SMILES: CCNCCN(CC)N(O)N=O [NOC-12]
- half life [4]: 5.45 h

From patent publication US6469051B2, “Diaminorhodamine derivative” (priority 1997, dated 2002)
